Patent publication US11142525B2 (Pfizer Inc., priority 2018, dated 2021)

How the values were obtained:
[1] = target: human full-length recombinant HPK1 (Homo sapiens (Human), UniProt Q92918); experiment: HPK1 biochemical enzyme assay, microfluidic mobility shift assay (MSA); details: mobility shift assay; 75 μM ATP; Morrison equation, tight-binding competitive inhibition; read-out: HPK1 Enzyme Assay_Ki
Method: HPK1 enzyme inhibition was measured using a microfluidic mobility shift assay (MSA). […] The reactions were conducted for 60 min at 37° C., stopped by the addition of 50 μL of 0.015 M EDTA, pH 8, and the extent of reactions (˜15-20% conversion with no inhibitor) was determined after electrophoretic separation of the fluorescently labeled peptide substrate and phosphorylated product on an LabChip EZ Reader II (PerkinElmer, Inc., Waltham, Mass.). […]

[2] = tested on: phospho-SLP-76 (Ser376) in Jurkat cells; experiment: Phospho-SLP-76 (Ser376) Homogeneous Time Resolved Fluorescence (HTRF) assay in Jurkat cells; assay type: cell-based; details: Homo sapiens, 30 min pre-treatment, anti-CD3 stimulation 15 min, HTRF, read-out: SLP76 Assay_IC50
Method: Jurkat cells were seeded at 90,000 cells/well in 90 uL of RPMI1640 growth medium containing 10% FBS and incubated at 37° C. with 5% CO2 overnight. The following day, compounds were serially diluted from a 10 mM top dose for an 11-point 3 fold dilution curve in DMSO. Compounds were intermediately diluted 1:100 into growth media prior to diluting 1:10 on cells for final concentration 10 μM to 0.1 nM in 0.1% DMSO. After 30 minutes pre-treatment with compounds, the cells were stimulated using 200 μg/mL of F(ab)2 complexed anti-CD3 (clone UCTH1) for 15 min at 37° C. with 5% CO2. Stimulation was stopped with ice cold PBS and cells were harvested by centrifugation before lysis in Cisbio lysis buffer (Cisbio, Bedford, Mass.). Lysates were transferred to white, low-volume plates containing anti-phospho-SLP-76-Cryptate plus anti-phospho-SLP-76-d2 HTRF antibodies and incubated overnight at room temperature protected from light according to the manufacturer's protocol (Cisbio, Bedford, Mass.). HTRF was measured on a Perkin Elmer Envision and IC50 values were calculated by concentration-response curve fitting utilizing four-parameter nonlinear regression analyses.

human full-length recombinant HPK1, sequence (Q92918 whole entry): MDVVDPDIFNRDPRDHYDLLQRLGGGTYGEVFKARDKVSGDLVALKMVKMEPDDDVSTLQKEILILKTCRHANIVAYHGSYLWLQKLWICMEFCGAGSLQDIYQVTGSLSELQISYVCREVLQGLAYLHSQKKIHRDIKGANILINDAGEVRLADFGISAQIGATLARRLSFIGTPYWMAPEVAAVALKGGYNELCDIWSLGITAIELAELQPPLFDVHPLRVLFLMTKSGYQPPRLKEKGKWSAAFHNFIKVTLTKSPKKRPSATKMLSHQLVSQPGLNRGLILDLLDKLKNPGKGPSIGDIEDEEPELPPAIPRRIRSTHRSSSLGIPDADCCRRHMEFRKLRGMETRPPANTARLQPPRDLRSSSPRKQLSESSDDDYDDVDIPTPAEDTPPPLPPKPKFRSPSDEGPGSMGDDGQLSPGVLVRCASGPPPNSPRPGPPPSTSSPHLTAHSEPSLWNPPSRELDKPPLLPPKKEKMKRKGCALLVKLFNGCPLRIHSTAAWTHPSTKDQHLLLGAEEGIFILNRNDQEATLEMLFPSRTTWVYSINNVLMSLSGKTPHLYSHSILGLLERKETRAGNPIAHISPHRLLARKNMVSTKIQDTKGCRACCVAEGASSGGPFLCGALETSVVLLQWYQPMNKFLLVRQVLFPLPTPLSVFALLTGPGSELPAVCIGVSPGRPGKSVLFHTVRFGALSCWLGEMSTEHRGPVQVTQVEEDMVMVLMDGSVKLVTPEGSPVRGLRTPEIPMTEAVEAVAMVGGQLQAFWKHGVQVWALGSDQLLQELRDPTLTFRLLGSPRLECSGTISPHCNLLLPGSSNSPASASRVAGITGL

Row | SMILES | Ki [1] | IC50 [2]
1 | C[C@H]1COC(=O)N1c1cccc(N2Cc3c(cc(C4CC4)nc3CN)C2=O)n1 [Example 26, 4-(aminomethyl)-6-cyclopropyl-2-{6-[(4S)-4-methyl-2-oxo-1,3-oxazolidin-3-yl]pyridin-2-yl}-2,3-dihydro-1H-pyrrolo[3,4-c]pyridin-1-one] | 0.9 nM | 439 nM
2 | CNCc1nc(N2[C@H](C)C[C@H]2C)cc2c1CN(c1cccc(-c3nncn3C(C)C)n1)C2=O [Example 28, 6-[(2R,4R)-2,4-dimethylazetidin-1-yl]-4-[(methylamino)methyl]-2-{6-[4-(propan-2-yl)-4H-1,2,4-triazol-3-yl]pyridin-2-yl}-2,3-dihydro-1H-pyrrolo[3,4-c]pyridin-1-one] | 0.41 nM | 119 nM
3 | CNCc1nc(C(C)(C)C)cc2c1CN(c1cccc(-c3nncn3C(C)C)n1)C2=O [Example 29, 6-tert-butyl-4-[(methylamino)methyl]-2-{6-[4-(propan-2-yl)-4H-1,2,4-triazol-3-yl]pyridin-2-yl}-2,3-dihydro-1H-pyrrolo[3,4-c]pyridin-1-one] | 3.2 nM | 396 nM
4 | C[C@H]1COC(=O)N1c1cccc(N2Cc3c(cc(N(C)C)nc3CN)C2=O)n1 [Example 32, 4-(aminomethyl)-6-(dimethylamino)-2-{6-[(4S)-4-methyl-2-oxo-1,3-oxazolidin-3-yl]pyridin-2-yl}-2,3-dihydro-1H-pyrrolo[3,4-c]pyridin-1-one] | 0.34 nM | 210 nM
5 | CNCc1nc(N2CCC2)cc2c1CN(c1cccc(N3C(=O)OC[C@@H]3C)n1)C2=O [Example 33, 6-(azetidin-1-yl)-4-[(methylamino)methyl]-2-{6-[(4S)-4-methyl-2-oxo-1,3-oxazolidin-3-yl]pyridin-2-yl}-2,3-dihydro-1H-pyrrolo[3,4-c]pyridin-1-one] | 0.28 nM | 134 nM
6 | CC(C)n1cnnc1-c1cccc(N2Cc3c(cc(N4[C@H](C)C[C@@H]4C)nc3CN)C2=O)n1 [Example 34, 4-(aminomethyl)-6-[(2R,4S)-2,4-dimethylazetidin-1-yl]-2-{6-[4-(propan-2-yl)-4H-1,2,4-triazol-3-yl]pyridin-2-yl}-2,3-dihydro-1H-pyrrolo[3,4-c]pyridin-1-one] | 1.32 nM | 379 nM
7 | C[C@H]1COC(=O)N1c1cccc(N2Cc3c(cc(C(C)(C)C)nc3CN)C2=O)n1 [Example 36, 4-(aminomethyl)-6-tert-butyl-2-{6-[(4S)-4-methyl-2-oxo-1,3-oxazolidin-3-yl]pyridin-2-yl}-2,3-dihydro-1H-pyrrolo[3,4-c]pyridin-1-one] | 5.1 nM | 1110 nM
8 | CCN(CC)c1cc2c(c(CN)n1)CN(c1cccc(-c3nncn3C(C)C)n1)C2=O [Example 38, 4-(aminomethyl)-6-(diethylamino)-2-{6-[4-(propan-2-yl)-4H-1,2,4-triazol-3-yl]pyridin-2-yl}-2,3-dihydro-1H-pyrrolo[3,4-c]pyridin-1-one] | 0.38 nM | 147 nM
9 | CNCc1nc(C(C)(C)C)cc2c1CN(c1cccc(N3C(=O)OC[C@@H]3C)n1)C2=O [Example 39, 6-tert-butyl-4-[(methylamino)methyl]-2-{6-[(4S)-4-methyl-2-oxo-1,3-oxazolidin-3-yl]pyridin-2-yl}-2,3-dihydro-1H-pyrrolo[3,4-c]pyridin-1-one] | 1.8 nM | 672 nM
10 | CNCc1nc(C2CC2)cc2c1CN(c1cccc(N3C(=O)OC[C@@H]3C)n1)C2=O [Example 40, 6-cyclopropyl-4-[(methylamino)methyl]-2-{6-[(4S)-4-methyl-2-oxo-1,3-oxazolidin-3-yl]pyridin-2-yl}-2,3-dihydro-1H-pyrrolo[3,4-c]pyridin-1-one] | 0.81 nM | 137 nM
11 | CC(C)c1cc2c(c(CN)n1)CN(c1cccc(N3C(=O)OC[C@@H]3C)n1)C2=O [Example 41, 4-(aminomethyl)-2-{6-[(4S)-4-methyl-2-oxo-1,3-oxazolidin-3-yl]pyridin-2-yl}-6-(propan-2-yl)-2,3-dihydro-1H-pyrrolo[3,4-c]pyridin-1-one] | 4.6 nM | 315 nM
12 | C[C@H]1COC(=O)N1c1cccc(N2Cc3c(cc(C4(C)CC4)nc3CN)C2=O)n1 [Example 42, 4-(aminomethyl)-6-(1-methylcyclopropyl)-2-{6-[(4S)-4-methyl-2-oxo-1,3-oxazolidin-3-yl]pyridin-2-yl}-2,3-dihydro-1H-pyrrolo[3,4-c]pyridin-1-one] | 0.33 nM | 192 nM
13 | C[C@@H]1C[C@@H](C)N1c1cc2c(c(CN)n1)CN(c1cccc(N3C(=O)OC[C@@H]3C)n1)C2=O [Example 43, 4-(aminomethyl)-6-[(2R,4R)-2,4-dimethylazetidin-1-yl]-2-{6-[(4S)-4-methyl-2-oxo-1,3-oxazolidin-3-yl]pyridin-2-yl}-2,3-dihydro-1H-pyrrolo[3,4-c]pyridin-1-one] | 1.92 nM | 561 nM
14 | C[C@H]1COC(=O)N1c1cccc(N2Cc3c(cc(N4CCC4)nc3CN)C2=O)n1 [Example 44, 4-(aminomethyl)-6-(azetidin-1-yl)-2-{6-[(4S)-4-methyl-2-oxo-1,3-oxazolidin-3-yl]pyridin-2-yl}-2,3-dihydro-1H-pyrrolo[3,4-c]pyridin-1-one] | 0.4 nM | 244 nM
15 | CNCc1nc(C)cc2c1CN(c1cccc(-c3nncn3C(C)C)n1)C2=O [Example 47, 6-methyl-4-[(methylamino)methyl]-2-{6-[4-(propan-2-yl)-4H-1,2,4-triazol-3-yl]pyridin-2-yl}-2,3-dihydro-1H-pyrrolo[3,4-c]pyridin-1-one] | 7.1 nM | 1520 nM
16 | CNCc1nc(C2(C)CC2)cc2c1CN(c1cccc(N3C(=O)OC[C@@H]3C)n1)C2=O [Example 49, 4-[(methylamino)methyl]-6-(1-methylcyclopropyl)-2-{6-[(4S)-4-methyl-2-oxo-1,3-oxazolidin-3-yl]pyridin-2-yl}-2,3-dihydro-1H-pyrrolo[3,4-c]pyridin-1-one] | 1.46 nM | 730 nM

Results, then the compound that gave them:

Row | Ki [1] | IC50 [2] | SMILES
17 | 0.62 nM | 245 nM | CNCc1nc(N(C)C)cc2c1CN(c1cccc(-c3nncn3CC3CC3)n1)C2=O [Example 21, 2-{6-[4-(cyclopropylmethyl)-4H-1,2,4-triazol-3-yl]pyridin-2-yl}-6-(dimethylamino)-4-[(methylamino)methyl]-2,3-dihydro-1H-pyrrolo[3,4-c]pyridin-1-one]
18 | 0.4 nM | 105 nM | CNCc1nc(N(C)C)cc2c1CN(c1ccc(F)c(-c3cn[nH]c3C(C)C)n1)C2=O [Example 22, 6-(dimethylamino)-2-{5-fluoro-6-[5-(propan-2-yl)-1H-pyrazol-4-yl]pyridin-2-yl}-4-[(methylamino)methyl]-2,3-dihydro-1H-pyrrolo[3,4-c]pyridin-1-one]
19 | 2.1 nM | 573 nM | CNCc1nc(C(C)C)cc2c1CN(c1cccc(-c3nncn3C(C)C)n1)C2=O [Example 30, 4-[(methylamino)methyl]-6-(propan-2-yl)-2-{6-[4-(propan-2-yl)-4H-1,2,4-triazol-3-yl]pyridin-2-yl}-2,3-dihydro-1H-pyrrolo[3,4-c]pyridin-1-one]
20 | 0.12 nM | 183 nM | CC(C)c1cnnn1-c1cccc(N2Cc3c(cc(N(C)C)nc3CN)C2=O)n1 [Example 35, 4-(aminomethyl)-6-(dimethylamino)-2-{6-[5-(propan-2-yl)-1H-1,2,3-triazol-1-yl]pyridin-2-yl}-2,3-dihydro-1H-pyrrolo[3,4-c]pyridin-1-one]
21 | 1.5 nM | 487 nM | CNCc1nc(N(C)C)cc2c1CN(c1cccc(N3C(=O)OC[C@@H]3C(F)F)n1)C2=O [Example 37, 2-{6-[(4R)-4-(difluoromethyl)-2-oxo-1,3-oxazolidin-3-yl]pyridin-2-yl}-6-(dimethylamino)-4-[(methylamino)methyl]-2,3-dihydro-1H-pyrrolo[3,4-c]pyridin-1-one]
22 | 0.17 nM | 173 nM | CNCc1nc(N(C)C)cc2c1CN(c1cccc(N3C(=O)OC[C@@H]3CF)n1)C2=O [Example 45, 6-(dimethylamino)-2-{6-[(4R)-4-(fluoromethyl)-2-oxo-1,3-oxazolidin-3-yl]pyridin-2-yl}-4-[(methylamino)methyl]-2,3-dihydro-1H-pyrrolo[3,4-c]pyridin-1-one]
23 | 0.14 nM | 94 nM | CCCn1cnnc1-c1cccc(N2Cc3c(cc(N(C)C)nc3CNC)C2=O)n1 [Example 46, 6-(dimethylamino)-4-[(methylamino)methyl]-2-[6-(4-propyl-4H-1,2,4-triazol-3-yl)pyridin-2-yl]-2,3-dihydro-1H-pyrrolo[3,4-c]pyridin-1-one]
24 | 0.14 nM | 94 nM | CCN(C)c1cc2c(c(CNC)n1)CN(c1cccc(-c3nncn3C(C)C)n1)C2=O [Example 48, 6-[ethyl(methyl)amino]-4-[(methylamino)methyl]-2-{6-[4-(propan-2-yl)-4H-1,2,4-triazol-3-yl]pyridin-2-yl}-2,3-dihydro-1H-pyrrolo[3,4-c]pyridin-1-one]
